Experimental data from patent publication US8748700B2, “Control of AAD-1 monocot volunteers in fields of dicot crops” (Dow AgroSciences, LLC., priority 2009, dated 2014).

What was measured:
[1] = test system: volunteer conventional or transgenic maize lines; test: Control of volunteer maize in a field planted with AAD-maize using alternative herbicides (Table 6, herbicide options); type: in vivo; settings: for Herbicides option - Burndown/PRE: planted: any AAD-1 hybrid of the table
Text: In an embodiment, volunteer transgenic maize lines (containing the Clear Field trait, Roundup Ready or other Glyphosate Tolerant Trait, Liberty Link Trait, Imidazolonine tolerant trait, or any stacked combination thereof) or volunteer conventional maize lines are controlled within a field of transgenic AAD maize (AAD-1) by the application of aryloxyphenoxypropionate herbicide (Fops) including, but not limited to; quizalofop, haloxyfop, fenoxaprop, fluazifop, et al., their stereospecific isomers or racemic mixtures, and esters, acid, or salts thereof. In addition, the Fops herbicide may be applied with another herbicide(s) to control the volunteer maize lines described above.
The application of a given herbicide can be made before planting at pre-emergence/burndown or post-emergence after planting to control the volunteer conventional or transgenic maize lines. Table 6 lists the herbicides to be used at the different stages of planting (pre-emergence or post-emergence) to control volunteer conventional or transgenic maize. At or about a 1× Field Rate concentration of herbicide would be applied, as either a tank mix or alone, to the field for both pre-emergent and post-emergent volunteer control.
The control of conventional maize plants or transgenic maize plants containing a herbicide tolerant expression cassette within a field of AAD transgenic maize (either stacked with other herbicide tolerant traits or alone) would be applicable for the control of a herbicide tolerant transgenic monocot plant (including, but not limited too; corn, rice, sugar cane, switch grass, turf grass species, sorghum, barley, wheat, and oats, and durum) within a field being planted with an AAD monocot crop (including, but not limited too; corn, rice, sugar cane, switch grass, turf grass species, sorghum, barley, wheat, and oats, and durum). The example described above, in which volunteer transgenic herbicide tolerant maize plants are controlled in a field planted with AAD transgenic maize, is illustrative of the invention and not intended to restrict the scope of this embodiment.

[2] = test system: Transgenic Hi-II maize plants containing the AAD-1 and PAT expression cassette (3404); test: Post-emergent herbicide application on transgenic maize containing AAD-1 and PAT (pDAB3404), visual injury assessment; type: in vivo; settings: for Tolerance (−/+) 3404: 3404 = molecular stack of AAD-1 and PAT crossed with CP4 for glyphosate tolerance, V1-V3 stage, 1x Field Rate, visual injury after 14 days; for injury: WT and 3404 not distinguished; for Comment (activity in words): applies to both WT and AAD-1 plants
Method: Seed were planted into Metro Mix Media (Sun Gro Horticulture Inc., Bellevue, Wash.) and subirrigated with Hoagland's solution until wet, then allowed to gravity drain. Pots were placed in a glasshouse environment set to 27° C. until the germinated plants reached the V1-V3 growth stage. At or about, the V1-V3 growth stage, the maize plants were spayed using a track sprayer and a drop down nozzle calibrated to deliver a187 L/ha solution of herbicide at the 1× Field Rate (Table 7). After treatment the plants were placed in the greenhouse and scored via visual injury assessment after 14 days.

[3] = volunteer: CL Corn, planted: AAD-1 + PAT + AHAS
[4] = volunteer: CL Corn, planted: AAD-1 + PAT + GAT + ALS
[5] = volunteer: CL Corn, planted: AAD-1 + PAT + GT
[6] = volunteer: Conventional corn, planted: AAD-1 + PAT + AHAS
[7] = volunteer: Conventional corn, planted: AAD-1 + PAT + GAT + ALS
[8] = volunteer: Conventional corn, planted: AAD-1 + PAT + GT
[9] = volunteer: RR or GT Corn (text printed beside the CL Corn lines r30-r36)

Structure (SMILES): O=C(O)CNCP(=O)(O)O [glyphosate]
- Herbicides option - POST ([1]; volunteer: CL (or AHAS) + PAT, planted: AAD-1 + AHAS): glyphosate
- Herbicides option - POST ([1]; volunteer: CL (or AHAS) + PAT, planted: AAD-1 + GAT + ALS): glyphosate
- Herbicides option - POST ([1]; volunteer: CL (or AHAS) + PAT, planted: AAD-1 + GT): glyphosate
- Herbicides option - POST ([1]; volunteer: CL (or AHAS) + PAT, planted: AAD-1 + PAT + AHAS): glyphosate
- Herbicides option - POST ([1]; volunteer: CL (or AHAS) + PAT, planted: AAD-1 + PAT + GAT + ALS): glyphosate
- Herbicides option - POST ([1]; volunteer: CL (or AHAS) + PAT, planted: AAD-1 + PAT + GT): glyphosate
- Herbicides option - POST ([1]; volunteer: CL Corn, planted: AAD-1 + AHAS): glyphosate
- Herbicides option - POST ([1]; volunteer: CL Corn, planted: AAD-1 + GAT + ALS): glyphosate
- Herbicides option - POST ([1]; volunteer: CL Corn, planted: AAD-1 + GT): glyphosate
- Herbicides option - POST [1, 3]: glyphosate
- Herbicides option - POST [1, 4]: glyphosate
- Herbicides option - POST [1, 5]: glyphosate
- Herbicides option - POST ([1]; volunteer: Conventional corn, planted: AAD-1 + AHAS): glyphosate
- Herbicides option - POST ([1]; volunteer: Conventional corn, planted: AAD-1 + GAT + ALS): glyphosate
- Herbicides option - POST ([1]; volunteer: Conventional corn, planted: AAD-1 + GT): glyphosate
- Herbicides option - POST [1, 6]: glyphosate
- Herbicides option - POST [1, 7]: glyphosate
- Herbicides option - POST [1, 8]: glyphosate
- Herbicides option - POST ([1]; volunteer: LL Corn, planted: AAD-1 + AHAS): glyphosate
- Herbicides option - POST ([1]; volunteer: LL Corn, planted: AAD-1 + GAT + ALS): glyphosate
- Herbicides option - POST ([1]; volunteer: LL Corn, planted: AAD-1 + GT): glyphosate
- Herbicides option - POST ([1]; volunteer: LL Corn, planted: AAD-1 + PAT + AHAS): glyphosate
- Herbicides option - POST ([1]; volunteer: LL Corn, planted: AAD-1 + PAT + GAT + ALS): glyphosate
- Herbicides option - POST ([1]; volunteer: LL Corn, planted: AAD-1 + PAT + GT): glyphosate

Structure (SMILES): CCc1cnc(C2=NC(C)(C(C)C)C(=O)N2)c(C(=O)O)c1 (stereo not shown) [imazethapyr]
- Tolerance (−/+) 3404 [2]: −/+
- injury ([2]; @ 70 g ai/ha): Need higher than 70 g ai/ha rate (50% injury @

Structure (SMILES): CCc1cc(C)cc(CC)c1-c1c(OC(=O)C(C)(C)C)n2n(c1=O)CCOCC2 [pinoxaden]
- Tolerance (−/+) 3404 [2]: +/−
- Comment (activity in words) [2]: Not active but small amt of control on both WT

Structure (SMILES): C[n+]1ccc(-c2cc[n+](C)cc2)cc1 [paraquat]
- Herbicides option - Burndown/PRE ([1]; volunteer: CL (or AHAS) + GT): paraquat
- Herbicides option - Burndown/PRE ([1]; volunteer: CL (or AHAS) + PAT): paraquat
- Herbicides option - Burndown/PRE ([1]; volunteer: CL Corn): paraquat
- Herbicides option - Burndown/PRE ([1]; volunteer: Conventional corn): paraquat
- Herbicides option - Burndown/PRE ([1]; volunteer: GAT + ALS + PAT): paraquat
- Herbicides option - Burndown/PRE ([1]; volunteer: GAT + ALS): paraquat
- Herbicides option - Burndown/PRE ([1]; volunteer: GT + CL (or AHAS) + PAT): paraquat
- Herbicides option - Burndown/PRE ([1]; volunteer: GT + PAT): paraquat
- Herbicides option - Burndown/PRE ([1]; volunteer: LL Corn): paraquat
- Herbicides option - Burndown/PRE [1, 9]: paraquat

Structure (SMILES): C[C@@H](Oc1ccc(Oc2ncc(Cl)cc2F)cc1)C(=O)O [clodinafop]
- Tolerance (−/+) 3404 [2]: +

Structure (SMILES): COCc1cnc(C2=NC(C)(C(C)C)C(=O)N2)c(C(=O)O)c1 (stereo not shown) [imazamox]
- Tolerance (−/+) 3404 [2]: −

Structure (SMILES): COC(=O)[C@@H](C)Oc1ccc(Oc2ncc(C(F)(F)F)cc2Cl)cc1 [haloxyfop-methyl R]
- Tolerance (−/+) 3404 [2]: +

Structure (SMILES): CCO/N=C(\CC)C1=C(O)CC(c2c(C)cc(C)cc2C)CC1=O (stereo not shown) [tralkoxydim]
- Tolerance (−/+) 3404 [2]: −

Structure (SMILES): COC(=O)C(C)Oc1ccc(Oc2ccc(Cl)cc2Cl)cc1 (stereo not shown) [diclofop-methyl]
- Tolerance (−/+) 3404 [2]: −
- Comment (activity in words) [2]: Not active on grasses

Structure (SMILES): CCCCOC(=O)[C@@H](C)Oc1ccc(Oc2ccc(C#N)cc2F)cc1 [cyhalofop-butyl]
- Tolerance (−/+) 3404 [2]: +

Structure (SMILES): CCCCOC(=O)[C@@H](C)Oc1ccc(Oc2ccc(C(F)(F)F)cn2)cc1 [fluazifop-P-butyl]
- Tolerance (−/+) 3404 [2]: +

Structure (SMILES): O=C(O)CNCP(=O)(O)O [Glyphosate]
- Herbicides option - Burndown/PRE ([1]; volunteer: CL (or AHAS) + PAT): Glyphosate
- Herbicides option - Burndown/PRE ([1]; volunteer: CL Corn): Glyphosate
- Herbicides option - Burndown/PRE ([1]; volunteer: Conventional corn): Glyphosate
- Herbicides option - Burndown/PRE ([1]; volunteer: GAT + ALS): Glyphosate
- Herbicides option - Burndown/PRE ([1]; volunteer: LL Corn): Glyphosate

Structure (SMILES): CC(C)N.O=C(O)CNCP(=O)(O)O [glyphosate-isopropylammonium]
- Tolerance (−/+) 3404 [2]: +

Structure (SMILES): CCC/C(=N\OCC)C1=C(O)CC(CC(C)SCC)CC1=O (stereo not shown) [sethoxydim]
- Tolerance (−/+) 3404 [2]: −

Structure (SMILES): CCOC(=O)[C@@H](C)Oc1ccc(Oc2nc3ccc(Cl)cc3o2)cc1 [fenoxaprop-P-ethyl]
- Tolerance (−/+) 3404 [2]: +

Structure (SMILES): CCSC(C)CC1CC(=O)C(/C(CC)=N/OC/C=C/Cl)=C(O)C1 (stereo not shown) [clethodim]
- Tolerance (−/+) 3404 [2]: −

Structure (SMILES): CP(=O)(O)CCC(N)C(=O)O (stereo not shown) [glufosinate-ammonium]
- Tolerance (−/+) 3404 [2]: +

Structure (SMILES): CP(=O)(O)CCC(N)C(=O)O (stereo not shown) [glufosinate]
- Herbicides option - POST ([1]; volunteer: CL (or AHAS) + GT, planted: AAD-1 + PAT): glufosinate
- Herbicides option - POST ([1]; volunteer: CL (or AHAS) + GT, planted: AAD-1 + PAT + AHAS): glufosinate
- Herbicides option - POST ([1]; volunteer: CL (or AHAS) + GT, planted: AAD-1 + PAT + GAT + ALS): glufosinate
- Herbicides option - POST ([1]; volunteer: CL (or AHAS) + GT, planted: AAD-1 + PAT + GT): glufosinate
- Herbicides option - Burndown/PRE ([1]; volunteer: CL (or AHAS) + GT): glufosinate
- Herbicides option - Burndown/PRE ([1]; volunteer: CL (or AHAS) + PAT): glufosinate
- Herbicides option - POST ([1]; volunteer: CL Corn, planted: AAD-1 + PAT): glufosinate
- Herbicides option - POST [1, 3]: glufosinate
- Herbicides option - POST [1, 4]: glufosinate
- Herbicides option - POST [1, 5]: glufosinate
- Herbicides option - Burndown/PRE ([1]; volunteer: CL Corn): glufosinate
- Herbicides option - POST ([1]; volunteer: Conventional corn, planted: AAD-1 + PAT): glufosinate
- Herbicides option - POST [1, 6]: glufosinate
- Herbicides option - POST [1, 7]: glufosinate
- Herbicides option - POST [1, 8]: glufosinate
- Herbicides option - Burndown/PRE ([1]; volunteer: Conventional corn): glufosinate
- Herbicides option - POST ([1]; volunteer: GAT + ALS, planted: AAD-1 + PAT): glufosinate
- Herbicides option - POST ([1]; volunteer: GAT + ALS, planted: AAD-1 + PAT + AHAS): glufosinate
- Herbicides option - POST ([1]; volunteer: GAT + ALS, planted: AAD-1 + PAT + GAT + ALS): glufosinate
- Herbicides option - POST ([1]; volunteer: GAT + ALS, planted: AAD-1 + PAT + GT): glufosinate
- Herbicides option - Burndown/PRE ([1]; volunteer: GAT + ALS): glufosinate
- Herbicides option - Burndown/PRE [1, 9]: glufosinate
- Herbicides option - POST ([1]; volunteer: RR or GT Corn, planted: AAD-1 + PAT): glufosinate
- Herbicides option - POST ([1]; volunteer: RR or GT Corn, planted: AAD-1 + PAT + AHAS): glufosinate
- Herbicides option - POST ([1]; volunteer: RR or GT Corn, planted: AAD-1 + PAT + GAT + ALS): glufosinate
- Herbicides option - POST ([1]; volunteer: RR or GT Corn, planted: AAD-1 + PAT + GT): glufosinate

Structure (SMILES): CC(C)C1(C)N=C(c2nc3ccccc3cc2C(=O)O)NC1=O (stereo not shown) [imazaquin]
- Tolerance (−/+) 3404 [2]: −/+
- injury ([2]; @ 50 g ai/ha): Need higher than 50 g ai/ha rate (50% injury @

Structure (SMILES): CC(Oc1ccc(Oc2cnc3cc(Cl)ccc3n2)cc1)C(=O)O (stereo not shown) [quizalofop]
- Tolerance (−/+) 3404 [2]: +
